The target of test [1] is neuraminidase from the H1N9 strain of influenza (Influenza A virus, UniProt P03472). Kind of test: biochemical. The note with it: neuraminidase enzyme inhibition data (IC50 values) Flu A.
Test [2] has as its target Flu B neuraminidase (Influenza B virus, UniProt P03474). Put plainly: biochemical. The note with it: neuraminidase enzyme inhibition data (IC50 values) Flu B.

SMILES strings stand for the structures. Structures can show the parent of a compound that is named as a salt.

Flu B neuraminidase, sequence (P03474 whole entry): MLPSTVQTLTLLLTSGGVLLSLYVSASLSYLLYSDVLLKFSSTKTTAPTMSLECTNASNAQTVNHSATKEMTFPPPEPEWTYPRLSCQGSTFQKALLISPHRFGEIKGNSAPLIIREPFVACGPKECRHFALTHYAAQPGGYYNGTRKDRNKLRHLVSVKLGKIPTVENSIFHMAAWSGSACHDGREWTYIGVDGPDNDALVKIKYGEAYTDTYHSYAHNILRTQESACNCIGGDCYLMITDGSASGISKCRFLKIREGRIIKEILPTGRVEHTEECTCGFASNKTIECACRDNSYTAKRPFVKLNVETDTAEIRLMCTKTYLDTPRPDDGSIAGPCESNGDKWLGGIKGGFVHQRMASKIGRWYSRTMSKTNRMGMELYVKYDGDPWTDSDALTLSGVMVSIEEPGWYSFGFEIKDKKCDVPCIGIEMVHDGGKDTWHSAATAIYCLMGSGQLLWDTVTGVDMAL
neuraminidase from the H1N9 strain of influenza, sequence (P03472 83-470 limits assumed): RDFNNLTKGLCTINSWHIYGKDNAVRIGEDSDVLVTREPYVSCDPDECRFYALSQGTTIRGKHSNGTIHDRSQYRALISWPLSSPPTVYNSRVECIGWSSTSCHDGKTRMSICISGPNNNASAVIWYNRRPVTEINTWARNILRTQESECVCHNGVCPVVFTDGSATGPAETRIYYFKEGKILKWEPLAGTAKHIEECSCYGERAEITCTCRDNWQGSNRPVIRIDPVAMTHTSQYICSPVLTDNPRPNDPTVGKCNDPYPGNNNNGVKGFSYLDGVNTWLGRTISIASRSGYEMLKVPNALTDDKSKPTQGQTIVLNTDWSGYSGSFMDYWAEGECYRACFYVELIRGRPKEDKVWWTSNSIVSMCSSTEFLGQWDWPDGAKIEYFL

`CCC(CC)C(NC(C)=O)C1C(NC(=N)N)CC(C(=O)O)C1O` (single isomer, unassigned) [Compound 179, (±)-t-3-(1′-Acetylamino-2′-ethyl)butyl-c-4-[(amino-imino)methyl]amino-t-2-hydroxycyclopentan-r-1-carboxylic Acid]: the IC50 – broadly, the concentration needed to halve the response being measured – in test [1] was below 1000 nM. As for `CCC(CC)C(NC(C)=O)C1C(N)CC(C(=O)O)C1O` (single isomer, unassigned) [Compound 162, (±)-t-3-(1′-Acetylamino-2′-ethyl)butyl-c-4-amino-t-2-hydroxycyclopentan-r-1-carboxylic Acid], the IC50 in test [2] and in test [1] was below 1000 nM each time. Regarding `CCC(CC)C(NC(C)=O)[C@@H]1C=C(C(=O)O)C[C@H]1NC(=N)N` (stereo partly drawn) [Compound 219, (3R,4R,1′S)-(−)-3-(1′-Acetylamino-2′-ethyl)butyl-4-[(amino-imino)methyl]amino-cyclopent-1-en-1-carboxylic Acid Hydrochloride], the IC50 in test [2] and in test [1] was below 1000 nM in each case. For the molecule `CCC(C)C(NC(C)=O)C1C(N)CC(C(=O)O)C1O` (single isomer, unassigned) [Compound 166, (±)-t-3-(1′-Acetylamino-2′-methyl)butyl-c-4-amino-t-2-hydroxycyclopentan-r-1-carboxylic Acid], the values for the IC50 in test [2] and in test [1] were 1000 to 100000 nM and below 1000 nM, respectively. For `CCCCC(NC(C)=O)C1C(N)CC(C(=O)O)C1O` (single isomer, unassigned) [Compound 165], in that order: 1000 to 100000 nM and 1000 to 100000 nM. For `CCC(CC)C(NC(C)=O)[C@@H]1C[C@@H](C(=O)O)C[C@H]1NC(=N)NC` (stereo partly drawn) [Compound 212, (1R,3R,4R,1′S)-(−)-3-(1′-Acetylamino-2′-ethyl)butyl-4-[(N-methylamino-imino)methyl]aminoclopentan-1-carboxylic Acid], in that order: below 1000 nM and below 1000 nM. For `CCC(CC)C(NC(C)=O)C1CC(C(=O)O)CC1N` (single isomer, unassigned) [Compound 86, (±) t-3-[(1′-Acetylamino-2′-ethyl)butyl]-c-4-aminocyclopentan-r-1-carboxylic Acid], in that order: 1000 to 100000 nM and 1000 to 100000 nM. For `CCC(CC)C(NC(C)=O)[C@@H]1C[C@@H](C(=O)O)C[C@H]1NC(=N)N` (stereo partly drawn) [Compound 209, (1R,3R,4R,1′S)-(−)-3-(1′-Acetylamino-2′-ethyl)butyl-4-(aminoimino)methyl-aminocyclopentan-1-carboxylic Acid], in test [1], the IC50 was below 1000 nM. As for `CCC(CC)C(NC(C)=O)[C@@H]1[C@H](O)[C@@H](C(=O)O)C[C@H]1N` (stereo partly drawn) [Compound 160, (1S,2S,3R,4R,1′S)-(−)-3-(1′-Acetylamino-2′-ethyl)butyl-4-amino-2-hydroxycyclopentan-1-carboxylic Acid], the IC50 in test [2] and in test [1] was below 1000 nM each time. As to `CCC(CC)C(NC(C)=O)[C@@H]1[C@H](O)[C@@H](C(=O)O)C[C@H]1NC(=N)N` (stereo partly drawn) [Compound 178, (1S,2S,3R,4R,1′S)-(−)-3-(1′-Acetylamino-2′-ethyl)butyl-4-[(aminoimino)methyl]amino-2-hydroxycyclopentan-1-carboxylic Acid], the IC50 in test [1] is below 1000 nM. As for `CCCC(CCC)C(NC(C)=O)C1C(N)CC(C(=O)O)C1O` (single isomer, unassigned) [Compound 163, (±)-t-3-(1′-Acetylamino-2′-propyl)pentyl-c-4-amino-t-2-hydroxycyclopentan-r-1-carboxylic Acid], the IC50 in test [2] and in test [1] was below 1000 nM each time. In the case of `CCCCC(NC(C)=O)C1C(NC(=N)N)CC(C(=O)O)C1O` (single isomer, unassigned) [Compound 181], the IC50 in test [2] and in test [1] was below 1000 nM each time. In the case of `CCC(CC)C(NC(C)=O)[C@@H]1[C@H](O)[C@@H](C(=O)O)C[C@H]1NC(=N)NC` (stereo partly drawn) [Compound 182, (1S,2S,3R,4R,1′S)-(−)-3-(1′-Acetylamino-2′-ethyl)butyl-4-[(N-methylamino-imino)methyl]amino-2-hydroxycyclopentan-1-carboxylic Acid], the IC50 in test [2] and in test [1] was below 1000 nM each time. In the case of `CCCC(CCC)C(NC(C)=O)[C@@H]1[C@H](O)[C@@H](C(=O)O)C[C@H]1NC(=N)N` (stereo partly drawn) [Compound 183, (1S,2S,3R,4R,1′S)-(−)-3-(1′-Acetylamino-2′-propyl)pentyl-4-[(amino-imino)methyl]amino-2-hydroxycyclopentan-1-carboxylic Acid], the IC50 in test [2] and in test [1] was below 1000 nM in each case. `CCCC(CCC)C(NC(C)=O)[C@@H]1C[C@@H](C(=O)O)C[C@H]1NC(=N)N` (stereo partly drawn) [Compound 210, (1R,3R,4R,1′S)-(−)-3-(1′-Acetylamino-2′-propyl)pentyl-4-[(amino-imino)methyl]aminocyclopentan-1-carboxylic Acid]: the IC50 in test [2] and in test [1] was below 1000 nM throughout.

In test [1], `CCC(CC)C(NC(C)=O)C1CC(C(=O)O)CC1NC(=N)N` (single isomer, unassigned) [Compound 211, (±)-t-3-(1′-Acetylamino-2′-ethyl)butyl-c-4-[(amino-imino)methyl]-aminocyclopentan-r-1-carboxylic Acid] showed a half-maximal inhibitory concentration (IC50) below 1000 nM. For `CCC(CC)C(NC(C)=O)C1CC(C(=O)O)CC1O` (single isomer, unassigned) [Compound 65, (±) t-3-(1′-Acetylamino-2′-ethyl)butyl-t-4-hydroxycyclopentan-r-1-carboxylic Acid], the IC50 in test [2] and in test [1] was 1000 to 100000 nM throughout. With `CCC(CC)C(NC(C)=O)[C@@H]1C[C@@H](C(=O)O)C[C@H]1N` (stereo partly drawn) [Compound 199, (1R,3R,4R,1′S)-(−)-3-(1′-Acetylamino-2′-ethyl)butyl-4-aminocyclopentan-1-carboxylic Acid], the IC50 in test [2] and in test [1] was below 1000 nM each time. Turning to `CCC(CC)C(NC(C)=O)C1CC(C(=O)O)CC1N` (single isomer, unassigned) [Compound 200, (±)-t-3-(1′-Acetylamino-2′-ethyl)butyl-c-4-aminocyclopentan-1-carboxylic Acid], the IC50 in test [2] and in test [1] was below 1000 nM throughout. Regarding `CCC(CC)CC(NC(C)=O)C1C(NC(=N)N)CC(C(=O)O)C1O` (single isomer, unassigned) [Compound 180, (±)-t-3-(1′-Acetylamino-3′-ethyl)pentyl-c-4-[(amino-imino)methyl]amino-t-2-hydroxycyclopentan-r-1-carboxylic Acid], the IC50 in test [2] and in test [1] was below 1000 nM in each case.

Values taken from patent US6562861B1 (priority 1997, dated 2003).
